Test results reported in article PMC10303838, “Atlantic Salmon Gill Epithelial Cell Line (ASG-10) as a Suitable Model for Xenobiotic Biotransformation” (Metabolites, 2023).
Structures can show the parent of a compound that is named as a salt. Where two headings read alike, the source gives them in different places.

Columns and labels:
ASG-10 [1] = test: CYP activities in ASG-10: metabolite formation from specific substrates (LC-TQMS); details: non-induced cells, combined substrates 2; 5; 10 µM, 24 h, 19 °C
CYP2K1 = system: CYP2K1; set-up: method as in doi:10.1002/etc.5620161220; details: juvenile Atlantic salmon; cited from earlier work
CYP3A27 = system: CYP3A27; set-up: method as in doi:10.1002/etc.5620161220; details: juvenile Atlantic salmon; cited from earlier work
CYP1A1 [2] = system: CYP1A1; set-up: method as in doi:10.1002/etc.5620161220; details: juvenile Atlantic salmon; cited from earlier work
[3] = CYP activities in salmon liver microsomes (SLMs) and S9; details: both SLMs (2 mg/mL protein) and S9 (4 mg/mL protein), 20 °C, up to 60 min
[4] = Incubation of N-acetylated BZ (AcBZ) in SLMs, hydroxylation; assay type: in vitro ADME, Atlantic salmon; details: AcBZ as starting substance, 1 h
Experimental: A volume of 30 µL of 1 mg/mL BZ in 100% MeOH was evaporated (40 °C, N2) in a 1.5 mL vial. The residue was redissolved in 100 µL acetic anhydride (Sigma) and 100 µL pyridine (Sigma). The vial was placed at room temperature for 18 h. Subsequently, the reaction was stopped by the addition of 200 µL 100% MeOH. After evaporation, the residue was dissolved in 150 µL 100% MeOH (solution A). As control, 30 µL of BZ solution was evaporated and re-dissolved in 150 µL 100% MeOH (solution B). Afterwards, 3 µL of solutions A and B were incubated in SLMs as described above.

[5] = set-up: method as in doi:10.1016/S0166-445X(96)00792-8; details: channel catfish; cited from earlier work
ASG-10 [6] = test: BZ metabolism in ASG-10 (LC-HRMS/MS); assay type: in vitro ADME, Atlantic salmon (Salmo salar); details: 303 µM BZ, 24 h, 45,000 or 90,000 cells/well, LC-HRMS peak areas
Experimental: BZ, an anesthetic commonly used in aquaculture, was used to evaluate the potential activity of N-acetyltransferases (NAT) and esterases in ASG-10, SLMs and S9. The production of BZ-related metabolites was determined by liquid chromatography high-resolution tandem mass spectrometry (LC-HRMS/MS). When available, reference standards were used for the specification of metabolites.
BZ metabolism was investigated in ASG-10 cells plated in a 96-well plate as described in Section 2.2. The culture medium was replaced by fresh medium containing BZ (Table 1).
(§1) BZ biotransformation products were determined using a Q Exactive™ hybrid quadrupole-Orbitrap mass spectrometer equipped with a heated electrospray ion source (HESI-II) and coupled to a Vanquish UHPLC system (Thermo Fisher Scientific). […]
(§2) Mass spectra were acquired in the full scan mode, applying sequential data-dependent top 5 analysis (ddMS2-top5) with an inclusion list containing masses of interest. […] BZ and BZ-related compounds were determined by targeted parallel reaction monitoring (PRM). […]
The mobile phase was composed of solvent A (water) and solvent B (MeOH), both containing 0.1% formic acid. […] Raw data were acquired by Xcalibur (Version 4.0, Thermo Fisher Scientific), and molecular formula assignments and mass error were evaluated within the same software (Elemental Composition tab). […]

CYP1A [7] = test: CYP1A immunochemical analysis (immunoblot) in BNF-stimulated ASG-10; assay type: cell-based, Atlantic salmon (Salmo salar); details: 24 h
Experimental: The ASG-10 cells were seeded into 6-well plates as described in Section 2.2. After two days, the cells were stimulated with BNF (1–100 nM, 24 h), a well-known non-toxic inducer of CYP1A protein expression. After exposure, the cells were washed twice in ice-cold PBS and placed at −70 °C until the next day. The cells were then scraped in cell lysis buffer with 0.8% SDS and 1% proteinase inhibitor cocktail added and centrifuged (10,000× g, 1 min) through use of the QIAshredder for homogenization. The protein concentrations were quantified by using the Bio-Rad DC kit (Hercules, CA, USA) and the samples were adjusted to equal protein concentration with lysis buffer before being denatured through the addition of NuPage lithium dodecyl sulfate (LDS) sample buffer and NuPage reducing agent as described by the manufacturer (Invitrogen, Waltham, MA, USA). Blotting was performed using the NuPage Novex system from Invitrogen (Thermo Fisher), applying […] protein per well on a 4–12% NuPage BisTris gel. Separation was performed under reducing conditions for 40 min at 200 V in 3-(N-morpholino) propane sulfonic acid (MOPS)–SDS running buffer using the Novex Sharp pre-stained standard with a range of 3.5–260 kDa. […]

CYP1A1 [8] = system: CYP1A1; set-up: method as in PMID 12413795; details: BNF exposure; cited from earlier work
CYP1A [9] = test: EROD assay in BNF-stimulated ASG-10; assay type: cell-based, Atlantic salmon (Salmo salar); details: ASG-10, BNF 1 to 100 nM, 24 h
Experimental: CYP1A induction in BNF-stimulated ASG-10 was measured using the ethoxyresorufin-O-deethylase (EROD) assay. CYP1A converts 7-ethoxyresorufin to resorufin, which can be measured by fluorescence spectroscopy. The assay was performed as described in [17], with minor modifications. Briefly, the cells were seeded in a black 96-well plate as described in Section 2.2. After two days, the cells were incubated with the CYP1A inducer β-naphthoflavone (BNF; 1–100 nM) for 24 h. BNF was dissolved in DMSO. The final DMSO concentration in the cell culture was 0.1%. Appropriate controls containing the same amount of DMSO were included in each experiment. The next day, the culture medium was replaced with 200 µL EROD assay media (DMEM w/o phenol red; 10% FBS, 8 µM 7-ethoxyresorufin), and resorufin fluorescence (excitation: 530 nm/emission: 580 nm) was detected after 60 min using a Spectramax i3x plate reader.

CYP1A [10] = system: CYP1A; set-up: method as in PMID 10630570; details: primary carp hepatocytes, 20 nM, 18 h; cited from earlier work
CYP1A [11] = system: CYP1A; set-up: method as in doi:10.1002/etc.5620160509; details: PLHC-1, 24 h; cited from earlier work
CYP1A [12] = system: CYP1A; set-up: method as in PMID 1897246; details: rainbow trout liver primary cells, 3.6 to 360 nM BNF, 48 h, dose-dependent; cited from earlier work
CYP1A [13] = system: CYP1A; set-up: method as in doi:10.1002/etc.5620160509; details: cited from earlier work
Zebrafish embryos = system: Zebrafish embryos; set-up: method as in PMID 27571242; details: 48 h exposure; cited from earlier work
methemoglobin = system: methemoglobin; set-up: method as in PMID 32974865; details: immersion in a sedating BZ dose or repeated anesthesia; cited from earlier work
[14] = set-up: method as in PMID 1897251; details: rainbow trout, within 3 h, mainly as AcBZ; cited from earlier work
ASG-10 [15] = test: CellTox Green cytotoxicity assay in ASG-10; assay type: cell-based, Atlantic salmon (Salmo salar); details: ASG-10, 121 or 303 µM BZ, 48 h
Experimental: CellTox™ Green assay: The non-toxic dye CellTox™ Green stains DNA in cells with impaired membrane integrity. Binding interactions with DNA produce a fluorescence signal that is proportional to cytotoxicity (necrotic, late apoptotic cells). CellTox™ Green dye was added to the cells as described by the manufacturer (Promega) and fluorescence visualized by microscopy (Zeiss Observer A1, Carl Zeiss, Oberkochen, Germany).

[16] = set-up: method as in doi:10.5772/intechopen.91700; details: cited from earlier work
[17] = cited from earlier work
[18] = cited from earlier work; remark: listed apart in the source
ASG-10 [19] = test: Alamar Blue assay, metabolic activity/viability of ASG-10; assay type: cell-based, Atlantic salmon (Salmo salar); details: ASG-10, 121 or 303 µM BZ, 24 h
Experimental: Alamar Blue assay: The metabolic activity/viability of the ASG-10 cell line was measured using the Alamar Blue assay according to the manufacturer’s protocol (Thermo Fisher). After exposure to test compounds with potential cell toxicity, Alamar Blue was added to the cell culture, and incubated for 3 h. […] The fluorescence (excitation: 555 nm/emission: 585 nm) was quantified using a Spectramax i3x plate reader (Molecular Devices, San Jose, CA, USA).

[20] = UGT activities in salmon liver microsomes (SLMs) and S9; details: SLMs (2 mg/mL) and S9 (4 mg/mL), 20 °C, up to 60 min
[21] = BZ metabolism in SLMs and S9 (LC-HRMS/MS); details: SLMs 1 µM BZ, S9 3 µM BZ (Figure 9 legend: 1 µM), 1 h
Experimental: The production of BZ-related metabolites was determined by liquid chromatography high-resolution tandem mass spectrometry (LC-HRMS/MS).
Additionally, BZ metabolism was investigated in SLMs (1 µM BZ) and S9 (3 µM BZ) (Table 1). The incubations were first performed separately for phase I and phase II metabolism, and a combined assay was performed afterwards. The reaction mixture (total assay volume 0.5 mL) contained 0.8 mM NADPH, 0.7 mM NADP+, 7.5 mM UDPGA and 0.3 mM UDPAG. Aliquots (150 µL) were drawn at 0, 30 and 60 min and mixed with an equal volume of ice-cold 100% MeCN. […] After filtration (Costar Spin-X® 0.22 mm Nylon filter; Corning, Inc.; Corning, NY, USA), the concentrated samples were analyzed using LC-HRMS/MS.
as §1, §2

[22] = different fish species including rainbow trout and Atlantic salmon

SMILES: Cc1ncc2n1-c1ccc(Cl)cc1C(c1ccccc1F)=NC2O (stereo not shown) [4-OH-MDZ, 4-hydroxymidazolam]
- Formation of metabolites of specific CYP substrates in ASG-10 (ASG-10 [1]): observed

SMILES: CCCCCCCCCc1ccc(O)cc1 [4-nonylphenol]
- CYP2K1 activity in liver (CYP2K1): dose-dependently reduced
- CYP3A27 activity in liver (CYP3A27): dose-dependently reduced
- CYP1A1 activity in liver (CYP1A1 [2]): dose-dependently reduced

SMILES: O=c1[nH]c2cc(Cl)c(O)cc2o1 [6-OH-CH, 6-hydroxychlorzoxazone]
- Formation of CYP-specific metabolites / substrate conversion in SLMs and S9 [3]: low

SMILES: CCOC(=O)c1ccc(NC(C)=O)cc1 [AcBZ, acetylbenzocaine]
- Hydroxylation product after incubation in SLMs [4]: no longer detectable
- time detected in most tissues after water exposure to BZ [5]: up to 144 h
- BZ metabolites produced in ASG-10 cells (ASG-10 [6]): major biotransformation product

SMILES: CC(=O)Nc1ccc(C(=O)O)cc1 [AcPABA, p-acetaminobenzoic acid]
- time detected in most tissues after water exposure to BZ [5]: up to 144 h

SMILES: O=c1cc(-c2ccccc2)oc2ccc3ccccc3c12 [BNF, β-naphthoflavone]
- CYP1A protein increase (CYP1A [7]; ASG-10, 1 nM BNF): visible CYP1A protein increase
- CYP1A protein (immunochemical analysis) (CYP1A [7]; ASG-10, BNF 1 to 100 nM): concentration-dependent increase
- CYP1A1 induction in salmon liver (CYP1A1 [8]): can be induced
- CYP1A enzyme activity (EROD assay) (CYP1A [9]): concentration-dependent increase
- increase in the EROD rate (CYP1A [10]): 30 fold
- BNF concentration required to produce a detectable CYP1A protein increase (CYP1A [11]): 1 µM
- maximum EROD rate increase (CYP1A [12]): nine-fold
- increase in EROD enzyme activity (CYP1A [13]; PLHC-1, 100 nM BNF): eightfold
- increase in EROD enzyme activity (CYP1A [13]; PLHC-1, 1 µM BNF): 100 fold

SMILES: CCOC(=O)c1ccc(N)cc1 [BZ, ethyl 4-aminobenzoate]
- AcBZ and PABA together as share of the total BZ amount (Zebrafish embryos): 90%
- blood levels of methemoglobin (methemoglobin): increased blood levels of methemoglobin
- time detected in most tissues after water exposure to BZ [5]: up to 144 h
- share of applied BZ dose eliminated through the gills [14]: about 59%
- Cytotoxicity (Celltox Green assay) (ASG-10 [15]): no cytotoxicic effects
- n-octanol/water coefficient (pKOW) [16]: 1.44
- solubility in more lipidic solvents relative to water ([17]; MeOH and chloroform): ~1000 times
- water solubility ([17]; non-salt BZ, 20 °C): 400 µg/mL
- distribution volumes [18, 22]: rather high
- mean residence times [18, 22]: below 15 min
- plasma half-life ([18]; salmonids): less than 2 h
- time to maximal concentrations in blood ([18]; under water exposure): less than 2 min
- Metabolic activity or viability (Alamar Blue) (ASG-10 [19]): did not affect

SMILES: CCOC(=O)c1ccc(NO)cc1 [BZOH, Benzocaine hydroxylamine]
- BZ metabolites produced in ASG-10 cells (ASG-10 [6]): produced

SMILES: CN1CC[C@@]23CCCC[C@@H]2[C@@H]1Cc1ccc(O)cc13 [DOR, dextrophan]
- Formation of metabolites of specific CYP substrates in ASG-10 (ASG-10 [1]): observed

SMILES: CC(=O)NCCc1c[nH]c2ccc(O[C@@H]3O[C@H](C(=O)O)[C@@H](O)[C@H](O)[C@H]3O)cc12 [NAS-GlcA, N-acetyl serotonin β-D-glucuronide]
- Formation of UGT-specific metabolites in SLMs and S9 [20]: low

SMILES: C=CCN1CC[C@]23c4c5ccc(O[C@@H]6O[C@H](C(=O)O)[C@@H](O)[C@H](O)[C@H]6O)c4O[C@H]2C(=O)CC[C@@]3(O)[C@H]1C5 [NLX-GlcA, naloxone-3β-D glucuronide]
- Formation of UGT-specific metabolites in SLMs and S9 [20]: highest metabolite level

SMILES: Nc1ccc(C(=O)O)cc1 [PABA, p-aminobenzoic acid]
- BZ metabolites in SLM and S9 incubations [21]: not detectable

SMILES: CN1CCN(CCCN2c3ccccc3Sc3ccc(C(F)(F)F)cc32)CC1 [TFP, trifluoperazine dihydrochloride]
- Formation of UGT-specific metabolites in SLMs and S9 [20]: not measurable
